{
  "source": "patent US20100240758A1",
  "about": "“EXTERNAL PREPARATION FOR PERCUTANEOUS ADMINISTRATION CONTAINING NONSTEROIDAL ANTI-INFLAMMATORY ANALGESIC” (Hisamitsu Pharmaceutical Co., Inc., priority 2003, published 2010)",
  "key": {"Balb/c mouse [1]": {"system": "Balb/c mouse", "experiment": "In vivo photoallergy test 1 (refined Murine Local Lymph Node Assay, 3H-TdR uptake)", "settings": "UVA 20 J/cm^2, 3 days, toward KP group", "description": "A KP photoallergy detection test was carried out by refining the Murine Local Lymph Node Assay (LLNA) proposed by the Interagency Coordinating Committee on the Validation of Alternative Methods (ICCVAM). That is, a Balb/c mouse (female, 8 to 12 weeks old) was used as a test animal, a solution of a test substance {4-tert-butyl-4′-methoxydibenzoylmethane (BM-DBM)} and 2% ketoprofen (KP) prepared in acetone—olive oil (4:1, v/v) was applied to the back of the pinna, and it was irradiated with UVA at 20 J/cm^2. This sensitization induction treatment was carried out for 3 days in succession. 5 days after starting the sensitization, 20 μCi per mouse of ^3H-methyl thymidine (^3H-TdR)/PBS solution was injected into the tail vein, and 5 hours later an auricular lymph node was removed. The removed lymph node was made into a single lymph cell suspension using a cell strainer, and after washing twice with PBS was then allowed to stand in a 5% trichloroacetic acid (TCA) solution at 4° C. overnight to thus make DNA precipitate. After the precipitate was suspended in 1 mL of 5% TCA solution, the radioactivity was measured using a liquid scintillation counter. The effect of the test substance in suppressing photoallergy due to KP was evaluated using as an index the degree of suppression of the increase in ^3H-TdR uptake by KP, that is, the ^3H-TdR uptake suppression rate (%) toward the KP group."}, "Balb/c mouse [2]": {"system": "Balb/c mouse", "experiment": "In vivo phototoxicity test (auricular light irradiation, ear swelling due to ketoprofen)", "settings": "UVA 40 J/cm^2, 24 hours after irradiation, toward KP group", "description": "The experiment below was carried out by partially refining the method of Gerberick et al., (Food Chem. Toxicol., 27, 813-819 (1989)). That is, a Balb/c mouse (female, 9 to 11 weeks old) was used as a test animal, each of the test substances {4-tert-butyl-4′-methoxydibenzoylmethane (BM-DBM), 2-ethylhexyl dimethoxybenzylidenedioxoimidazolidine propionate (DB-DIH), terephthalylidene-3,3′-dicamphor-10,10′-disulfonic acid (TP-DCS), n-hexyl 2-(4-diethylamino-2-hydroxybenzoyl)benzoate (DHB-BH)} and 2% ketoprofen (KP) were dissolved in ethanol and applied to the auricle, and it was irradiated with UVA at 40 J/cm^2. 24 hours after UVA irradiation, the ear thickness was measured, and an increase from the ear thickness prior to the start of the test was calculated. The effect in suppressing phototoxicity due to KP was evaluated for each test substance using as an index the degree of suppression of the increase in ear thickness due to KP, that is, the ear swelling suppression rate (%) toward the KP group."}, "[3]": {"system": "Hartley white female guinea pig", "experiment": "In vivo photoallergy test 2 (skin photoallergy test, Adjuvant and Strip Method)", "settings": "2% KP + 2% test substance, toward KP group", "description": "A skin photoallergy test using a guinea pig was carried out by partially refining the Adjuvant and Strip Method of Sato et al., (The Nishinihon Journal of Dermatology, 42, 831-837 (1980)). That is, the back of the neck of a Hartley white female guinea pig (a group of 8 animals) was depilated, an adjuvant was administered to four corners of 2×2 cm, a 2% ethanol solution of ketoprofen (KP) or a solution of 2% KP+2% test substance {4-tert-butyl-4′-methoxydibenzoylmethane ([…])} was openly applied to the 2×2 cm area, and 1 hour later it was irradiated with UVA (10 J/cm^2). This sensitization induction treatment was carried out for 5 days in succession. 3 weeks after starting the sensitization, the back of the hip was depilated, the same solution as for the sensitization was openly applied to a 2×2 cm area, and 1 hour later it was irradiated with UVA (10 J/cm^2) to thus carry out a photoinduction. A skin reaction 24 and 48 hours after the irradiation was evaluated in accordance with the above-mentioned criteria of Sato et al. The effect of BM-DBM in suppressing photoallergy due to KP was evaluated by erythema and swelling suppression rates (%) toward the KP group."}, "[4]": {"settings": "test substance 0.5% with 2% KP in ethanol on auricle"}},
  "data": [
    {"smiles": "COc1ccc(C(=O)CC(=O)c2ccc(C(C)(C)C)cc2)cc1", "note": "[BM-DBM, 4-tert-butyl-4′-methoxydibenzoylmethane]", "values": [
      {"measurement": "^3H-TdR Uptake Suppression Rate (%)", "setting": "Balb/c mouse [1]; BM-DBM 0.06% with 2% KP in acetone-olive oil", "result": 30, "unit": "%"},
      {"measurement": "^3H-TdR Uptake Suppression Rate (%)", "setting": "Balb/c mouse [1]; BM-DBM 0.13% with 2% KP in acetone-olive oil", "result": 51, "unit": "%"},
      {"measurement": "^3H-TdR Uptake Suppression Rate (%)", "setting": "Balb/c mouse [1]; BM-DBM 0.25% with 2% KP in acetone-olive oil", "result": 24, "unit": "%"},
      {"measurement": "^3H-TdR Uptake Suppression Rate (%)", "setting": "Balb/c mouse [1]; BM-DBM 0.50% with 2% KP in acetone-olive oil", "result": 94, "unit": "%"},
      {"measurement": "^3H-TdR Uptake Suppression Rate (%)", "setting": "Balb/c mouse [1]; BM-DBM 1.00% with 2% KP in acetone-olive oil", "result": 99, "unit": "%"},
      {"measurement": "Ear Swelling Suppression Rate (%)", "setting": "Balb/c mouse [2]; test substance 0.1% with 2% KP in ethanol on auricle", "result": 41, "unit": "%"},
      {"measurement": "Ear Swelling Suppression Rate (%)", "setting": "Balb/c mouse [2]; test substance 0.3% with 2% KP in ethanol on auricle", "result": 81, "unit": "%"},
      {"measurement": "Ear Swelling Suppression Rate (%)", "setting": "Balb/c mouse [2]; [4]", "result": 98, "unit": "%"},
      {"measurement": "Erythema/Swelling Suppression Rate (%) After 24 Hr", "setting": "[3]; UVA 10 J/cm^2, 24 hours after photoinduction irradiation", "result": 69, "unit": "%"},
      {"measurement": "Erythema/Swelling Suppression Rate (%) After 48 Hr", "setting": "[3]; UVA 10 J/cm^2, 48 hours after photoinduction irradiation", "result": 74, "unit": "%"}
    ]},
    {"smiles": "CCCCC(CC)COC(=O)CCN1C(=O)NC(=Cc2ccc(OC)c(OC)c2)C1=O", "note": "(stereo not shown) [DB-DIH, 2-ethylhexyl dimethoxybenzylidenedioxoimidazolidine propionate]", "values": [
      {"measurement": "Ear Swelling Suppression Rate (%)", "setting": "Balb/c mouse [2]; [4]", "result": 34, "unit": "%"}
    ]},
    {"smiles": "CCCCCCOC(=O)c1ccccc1C(=O)c1ccc(N(CC)CC)cc1O", "note": "[DHB-BH, n-hexyl 2-(4-diethylamino-2-hydroxybenzoyl)benzoate]", "values": [
      {"measurement": "Ear Swelling Suppression Rate (%)", "setting": "Balb/c mouse [2]; [4]", "result": 84, "unit": "%"}
    ]},
    {"smiles": "CC1(C)C2CCC1(CS(=O)(=O)O)C(=O)/C2=C\\c1ccc(/C=C2/C(=O)C3(CS(=O)(=O)O)CCC2C3(C)C)cc1", "note": "[TP-DCS, terephthalylidene-3,3′-dicamphor-10,10′-disulfonic acid]", "values": [
      {"measurement": "Ear Swelling Suppression Rate (%)", "setting": "Balb/c mouse [2]; [4]", "result": 65, "unit": "%"}
    ]}
  ]
}
